Data on 35 compounds can be found in US12565515B2, “1,2,4-oxadiazole compounds as inhibitors of CD47 signalling pathways” (AURIGENE ONCOLOGY LIMITED, priority 2018, dated 2026).

In one test the test system is luciferase expressing Raji cells. Put plainly: Luciferase based phagocytosis assay. It counts as cell-based. Conditions: human monocyte-derived macrophages, luminescence, read-out: % normalized phagocytosis (at 10 μM). As for the experimental part: (§1) DPBS (Gibco), RPMI 1640 WITH HEPES AND L-GLN-500 ML (Lonza), Recombinant Human M-CSF (R& D systems), CD47 Monoclonal Antibody (B6H12), Functional Grade antibody (Ebioscience), Mouse IgG1 kappa Isotype Control, Functional Grade (Ebioscience), Vacutainer (multiple sample luer adapter) (BD), Vacutainer (sodium heparin (NH) 158USP units, Blood collection tubes (BD), Histopaque (density—1.077 gm/ml) (SIGMA 1077), Trypan Blue solution (SIGMA-T8154), Hemacytometer (Bright line-SIGMA Z359629), Scalp vein infusion set (JMS), Cell Dissociation buffer (Gibco), 48-well sterile flat bottom plates (Corning), Luciferase expressing Raji cells (Generated in house by trasfection of luciferase gene in Raji cells) Luminometer, Hygromycin B (Invitrogen), Bright Glo luciferase assay system (Promega), 96 well plate, polystyrene, high band, white flat bottom wells (Sigma CLS3912), APC anti-mouse/human CD11b Antibody (Biolegend), H929 cells, CFSE (Ebioscience), Fetal Bovine Serum (Gibco Cat #: 10437028), Round-Bottom FACs Tubes (BD), Flowcytometer BD FACS Verse, 96 well plates, ultra-low attachment (Corning).
In vitro phagocytosis assay was performed to evaluate the ability of test item to enhance the phagocytic activity of macrophages. Monocytes were isolated from blood of healthy donor and cultured for 6-8 days using 10% RPMI (Roswell Park Memorial Institute) media and recombinant human M-CSF to differentiate into macrophages. Media was changed every alternate day. After differentiation, adherent macrophages were collected by gentle scraping and cultured in 10% RPMI overnight at a density of 0.1 million per well in 48 well tissue culture plate. Simultaneously, luciferase expressing Raji cells were cultured in 10% RPMI media with 100 μg/mL of hygromycin B in tissue culture flask. On the day of phagocytosis, macrophages were serum starved for 2 hours. 0.4 million luciferase expressing Raji cells per well were incubated with anti human CD47 purified B6H12 or Mouse IgG1 K Isotype Control antibody or various concentrations of test item in serum free media for 30 min at 37° C. and added into respective well of the 48 well plate seeded with macrophages. After 2 hours, cells were washed twice with PBS and 100 μL of serum free RPMI was added to each well. Additionally, 50 μL Bright Glow reagent was added to each well followed by mixing of cells and incubated for 5 min in dark. Luminescence reading was taken using plate reader after transferring the content of each well to white plate. Intensity of luminescence indicated the extent of phagocytosis. Each experimental condition was carried out in duplicate.
For the compound `NCc1noc([C@H](Cc2cnc[nH]2)NC(=O)N[C@@H](Cc2ccccc2)C(=O)O)n1` [Compound 14], the activation at 10 µM was 47%.
In the case of `N=C(N)NCCC[C@H](NC(=O)N1CCCC1C(=O)O)c1nc([C@@H](N)CCC(=O)O)no1` (stereo partly drawn) [Compound 3], the activation at 10 µM stood at 42%.
Same read-out and setting: with `NCCCC[C@H](N)c1noc([C@H](CCC(=O)O)NC(=O)N[C@@H](Cc2cnc[nH]2)C(=O)O)n1` [Compound 13] the figure was 49%.
The same measure, in the same setting: with `N=C(N)NCCC[C@H](N)c1noc([C@H](CCC(=O)O)NC(=O)N[C@@H](Cc2ccccc2)C(=O)O)n1` [Compound 7, (S)-4-(3-((S)-1-amino-4-guanidinobutyl)-1,2,4-oxadiazol-5-yl)-4-(3-((S)-1-carboxy-2-phenylethyl)ureido)butanoic acid] the figure was 58%; with `NCCCC[C@H](N)c1noc([C@H](CCC(N)=O)NC(=O)N2CCC[C@H]2C(=O)O)n1` [Compound 1, (((S)-4-amino-1-(3-((S)-1,5-diaminopentyl)-1,2,4-oxadiazol-5-yl)-4-oxobutyl)carbamoyl)-L-proline], 39%; with `N=C(N)NCCC[C@H](NC(=O)N[C@@H](CCC(=O)O)c1nc([C@@H]2CCCN2)no1)C(=O)O` [Compound 8], 20%.
Still for that read-out and setting: with `N=C(N)NCCC[C@H](NC(=O)N[C@@H](CCC(N)=O)C(=O)O)c1nc([C@@H](N)CCC(N)=O)no1` [Compound 12] the figure was 44%; with `N=C(N)NCCC[C@H](NC(=O)N[C@@H](CCC(N)=O)c1nc([C@@H](N)CC(N)=O)no1)C(=O)O` [Compound 9], 38%.

The subject of the next test is H929 cells. As to the kind of experiment: FACS based phagocytosis assay. Type of test: cell-based. Conditions: NCI-H929, human macrophages, CFSE stained H929 cells, flow cytometry, normalized to positive control B6H12. As for the experimental part: as §1
Monocytes were isolated from blood of healthy donor and cultured for 6-8 days using 10% RPMI (Roswell Park Memorial Institute) media and recombinant human M-CSF to differentiate into macrophages. Media was changed every alternate day. Simultaneously, H929 cells were cultured in 10% RPMI media with 50 μg/mL of betamercaptoethanol in tissue culture flask. On the day of phagocytosis adherent macrophages were serum starved for 2 hours in RPMI media. Simultaneously H929 cells were stained with 0.3 μM CFSE stain. After washing, 0.2 million CFSE stained H929 cells were incubated with anti-human CD47 or Mouse IgG1 K Isotype Control antibody or various conc of test item in serum free media for 30 min at 37° C. After 2 hours of serum starvation macrophages were dissociated with cell dissociation buffer and collected by gentle scraping and added at conc of 0.05 million per well into respective wells of the ultra-low attachment 96 well plate seeded with H929 cells. Phagocytosis was allowed for 2 hours. After 2 hours, cells were washed with PBS and stained with 1 μL of anti-human CD11b-APC antibody prepared in 100 μL of PBS for 30 min in 4° C. in dark. Cells were further washed and fixed in 100 μL of fixation buffer until acquired by Flow cytometry. The extent of phagocytosis of H929 cells by human macrophages was measured by acquiring the samples by Flow cytometry. Samples acquired by Flow cytometry were analysed by using FlowJo software. Each experimental condition was carried out in duplicate. Cells positive for FITC (CFSE) and CD11b-APC were considered as phagocytosed macrophages. Raw data of % phagocytosis by macrophages were obtained in the form of excel sheet from FlowJo. % phagocytosis from isotype control (background phagocytosis) was subtracted from % phagocytosis of macrophages treated with compound as well as other controls to get corrected phagocytosis values. Corrected phagocytosis values of compound treated samples were normalized with phagocytosis of positive control (B6H12) using the formula: % normalized phagocytosis=[(corrected % phagocytosis of compound)/(corrected phagocytosis of B6H12)*100]
A general note: Flow cytometry measures light scatter and fluorescence of single cells or particles in a stream.
For the compound `N[C@@H](CCC(=O)O)c1noc([C@H](Cc2ccccc2)NC(=O)N2CCC[C@H]2C(=O)O)n1` [Compound 33], the activation at 10 µM is 31%.
The same measure, in the same setting: with `NC(=O)CC[C@H](N)c1noc([C@H](CCC(=O)O)NC(=O)N2CCCC2C(=O)O)n1` (stereo partly drawn) [Compound 21] the figure was 13%; with `N=C(N)NCCC[C@H](NC(=O)N[C@@H](Cc1ccccc1)C(=O)O)c1nc([C@@H](N)CCC(N)=O)no1` [Compound 10], 28%; with `NCc1noc([C@H](Cc2cnc[nH]2)NC(=O)N[C@@H](Cc2ccccc2)C(=O)O)n1` [Compound 14], 26%.
`CCC(C)[C@H](NC(=O)N[C@@H](CCCNC(=N)N)c1nc([C@@H](N)CCC(=O)O)no1)C(=O)O` (stereo partly drawn) [Compound 37]: the activation at 10 µM is 17%.
Turning to `N[C@@H](CCC(=O)O)c1noc(CNC(=O)N[C@@H](Cc2cnc[nH]2)C(=O)O)n1` [Compound 22], the activation at 10 µM was found to be 33%.
The same measure, in the same setting: with `N=C(N)NCCC[C@H](NC(=O)N[C@@H](Cc1c[nH]c2ccccc12)C(=O)O)c1nc([C@@H](N)CCC(=O)O)no1` [Compound 46] the figure was 30%; with `N[C@@H](CCC(=O)O)c1noc([C@H](CO)NC(=O)N2CCCC2C(=O)O)n1` (stereo partly drawn) [Compound 35], 35%; with `N[C@@H](Cc1ccccc1)c1noc(CNC(=O)N2CCCC2C(=O)O)n1` (stereo partly drawn) [Compound 16], 27%.
On the same count and under the same terms, with `N[C@@H](CCC(=O)O)c1noc(CNC(=O)N2CCCC2C(=O)O)n1` (stereo partly drawn) [Compound 17] the figure was 33%; with `CC(C)C[C@H](NC(=O)N[C@@H](CCCNC(=N)N)c1nc([C@@H](N)CCC(=O)O)no1)C(=O)O` [Compound 44], 20%; with `COC(=O)C1CCCN1C(=O)NC(CCCNC(=N)N)c1nc([C@@H](N)CCC(=O)O)no1` (stereo partly drawn) [Compound 40], 27%.
The same measure, in the same setting: with `N=C(N)NCCC[C@H](NC(=O)N1CCCC1C(=O)O)c1nc(CN)no1` (stereo partly drawn) [Compound 31] the figure was 58%; with `N=C(N)NCCC[C@H](NC(=O)N[C@@H](CC(=O)O)C(=O)O)c1nc([C@@H](N)CCC(=O)O)no1` [Compound 47], 18%.
In the case of `N=C(N)NCCC[C@H](NC(=O)N1CCCC1C(=O)O)c1nc([C@@H](N)CCC(=O)O)no1` (stereo partly drawn) [Compound 3], the activation at 10 µM is 73%.
`COC(=O)CC[C@H](N)c1noc(C(CCCNC(=N)N)NC(=O)N2CCCC2C(=O)OC)n1` (stereo partly drawn) [Compound 39] returned an activation at 10 µM of 23%.
`N=C(N)NCCC[C@H](NC(=O)N1CCCC1C(=O)O)c1nc([C@@H](N)Cc2c[nH]c3ccccc23)no1` (stereo partly drawn) [Compound 30] registered an activation at 10 µM of 23%.
The same measure, in the same setting: with `N=C(N)NCCC[C@H](NC(=O)N1CCCC1C(=O)O)c1nc([C@@H](N)CC(=O)O)no1` (stereo partly drawn) [Compound 23] the figure was 60%; with `NCCCC[C@H](N)c1noc([C@H](CCC(=O)O)NC(=O)N[C@@H](Cc2cnc[nH]2)C(=O)O)n1` [Compound 13], 29%.
Still for that read-out and setting: with `CCC(C)[C@H](N)c1noc([C@H](CCCNC(=N)N)NC(=O)N2CCCC2C(=O)O)n1` (stereo partly drawn) [Compound 29] the figure was 26%; with `NC(=O)CC[C@H](N)c1noc(CNC(=O)N[C@@H](CCC(=O)O)C(=O)O)n1` [Compound 50], 26%; with `N=C(N)NCCC[C@H](NC(=O)N[C@@H](CCC(=O)O)C(=O)O)c1nc([C@@H](N)CCC(=O)O)no1` [Compound 51], 24%.
The compound `N=C(N)NCCC[C@H](N)c1noc([C@H](CCC(=O)O)NC(=O)N[C@@H](Cc2ccccc2)C(=O)O)n1` [Compound 7, (S)-4-(3-((S)-1-amino-4-guanidinobutyl)-1,2,4-oxadiazol-5-yl)-4-(3-((S)-1-carboxy-2-phenylethyl)ureido)butanoic acid] displayed an activation at 10 µM of 38%.
On the same count and under the same terms, with `NCCCC[C@H](N)c1noc([C@H](CCC(N)=O)NC(=O)N2CCC[C@H]2C(=O)O)n1` [Compound 1, (((S)-4-amino-1-(3-((S)-1,5-diaminopentyl)-1,2,4-oxadiazol-5-yl)-4-oxobutyl)carbamoyl)-L-proline] the figure was 45%; with `NCCCC[C@H](NC(=O)N[C@@H](CCC(N)=O)c1nc([C@@H](N)CC(N)=O)no1)C(=O)O` [Compound 43], 43%.
Still for that read-out and setting: with `NCCCC[C@H](N)c1noc([C@H](CCC(=O)O)NC(=O)NCC(=O)O)n1` [Compound 15] the figure was 62%; with `N[C@@H](CCC(=O)O)c1noc([C@H](CCC(=O)O)NC(=O)N2CCCC2C(=O)O)n1` (stereo partly drawn) [Compound 32], 46%.
On the same count and under the same terms, with `N=C(N)NCCC[C@H](NC(=O)N1CCCC1C(=O)O)c1nc([C@@H](N)CCC(N)=O)no1` (stereo partly drawn) [Compound 5] the figure was 56%.
On to `NCCCC[C@H](NC(=O)NCc1nc([C@@H](N)CCC(N)=O)no1)C(=O)O` [Compound 41], for which the activation at 10 µM came to 31%.
Still for that read-out and setting: with `N=C(N)NCCC[C@H](NC(=O)N[C@@H](CCC(=O)O)c1nc([C@@H]2CCCN2)no1)C(=O)O` [Compound 8] the figure was 40%; with `N=C(N)NCCC[C@H](NC(=O)N[C@@H](CCC(N)=O)C(=O)O)c1nc([C@@H](N)CCC(N)=O)no1` [Compound 12], 20%.
For the compound `N=C(N)NCCC[C@H](N)c1noc([C@H](CCC(=O)O)NC(=O)N2CCCC2C(=O)O)n1` (stereo partly drawn) [Compound 2], the activation at 10 µM is 37%.
Take `N[C@@H](Cc1cnc[nH]1)c1noc([C@H](Cc2ccccc2)NC(=O)N2CCCC2C(=O)O)n1` (stereo partly drawn) [Compound 19]: the activation at 10 µM amounted to 52%.
On to `N=C(N)NCCC[C@H](NC(=O)NCC(=O)O)c1nc([C@@H](N)CCC(=O)O)no1` [Compound 48], for which the activation at 10 µM came out at 29%.
